Reference: patent publication US11753403B2, “EIF4E inhibitors and uses thereof” (PIC Therapeutics, Inc., priority 2020, dated 2023)

Biological target: Human eIF4E (aa 28-217) / biotin labeled 4G2 peptide (Homo sapiens (Human), UniProt P06730)
Assay: Human eIF4E/4G2 binding assay (TR-FRET)
Conditions: Human eIF4E/4G2 TR-FRET binding assay; head says IC50, legend says EC50
Procedure, shortened: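 Refolded His-tagged human eIF4E (aa 28-217), 82.5 nM working stock, preincubated 4 h at RT with compounds (10-point 2-fold series) in NaPi pH 6.5 buffer with DTT and gamma globulin. Biotin-4G2 peptide then added for 20 min, followed by Eu-streptavidin/APC-anti-His for 20 min; TR-FRET 665/615 nm ratio normalized, IC50 fitted.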

Human eIF4E (aa 28-217) / biotin labeled 4G2 peptide, sequence (P06730 28-217): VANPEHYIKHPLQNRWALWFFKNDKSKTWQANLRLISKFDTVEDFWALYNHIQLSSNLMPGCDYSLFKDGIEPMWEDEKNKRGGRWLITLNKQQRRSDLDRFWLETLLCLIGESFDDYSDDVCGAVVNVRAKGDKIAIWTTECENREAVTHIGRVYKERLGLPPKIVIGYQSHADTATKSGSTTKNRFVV

Compound	IC50
CC(C)Cc1sc(N2CCN(C(=O)OCc3ccccc3)C(C(=O)O)C2)nc1-c1ccc(Cl)c(Cl)c1 (stereo not drawn) [I-244, 1-(benzyloxycarbonyl)-4-(4-(3,4-dichlorophenyl)-5-isobutylthiazol-2-yl)piperazine-2-carboxylic acid]	≤ 1000 nM
CC(C)c1sc(Nc2ncc(-c3ccccc3)cc2C(=N)N)nc1-c1ccc(Cl)c(Cl)c1 [I-285]	> 10000 nM
CC(C)Cc1sc(N(CCC(=O)NCCCN)Cc2ccccc2)nc1-c1ccc(Cl)c(Cl)c1 [I-192]	1000 to 10000 nM
CCOC(=O)N1CCN(c2nc(-c3ccc(Cl)c(Cl)c3)c(CC(C)C)s2)CC1C(=O)O (stereo not drawn) [I-245, 4-(4-(3,4-dichlorophenyl)-5-isobutylthiazol-2-yl)-1-(ethoxycarbonyl)piperazine-2-carboxylic acid]	1000 to 10000 nM
CC(C)Cc1sc(N2CCN(C(=O)c3ncccn3)C(C(=O)O)C2)nc1-c1ccc(Cl)c(Cl)c1 (stereo not drawn) [I-249]	1000 to 10000 nM
O=C(O)c1cccc(-c2nc(Cc3ccc(Cl)c(Cl)c3)cs2)c1 [I-223, 3-(4-(3,4-dichlorobenzyl)thiazol-2-yl)benzoic acid]	1000 to 10000 nM
COc1cccc(-c2nc(NCC(Cc3cccc(F)c3)C(=O)O)sc2C(C)C)c1 (stereo not drawn) [I-32]	1000 to 10000 nM
O=C(O)C(CNc1nc(-c2ccc(Cl)c(Cl)c2)c(C2CC2)s1)Cc1ccccc1 (stereo not drawn) [I-11]	1000 to 10000 nM
CC(C)c1sc(Nc2ncc(-c3cccs3)cc2C(=O)O)nc1-c1ccc(Cl)c(C(F)(F)F)c1 [I-263]	≤ 1000 nM
CC(C)Cc1sc(N(CCC(=O)O)Cc2ccccc2)nc1-c1cccnc1 [I-83]	> 10000 nM
CC(C)c1sc(Nc2ccsc2C(=O)NCCN)nc1-c1ccc(Cl)c(Cl)c1 [I-277]	1000 to 10000 nM
CC(C)Cc1sc(N(CCC(=O)NCCNC(=N)N)Cc2ccccc2)nc1-c1ccc(Cl)c(Cl)c1 [I-197, 3-(benzyl(4-(3,4-dichlorophenyl)-5-isobutylthiazol-2-yl)amino)-N-(2-guanidinoethyl) propanamide]	1000 to 10000 nM
O=C(O)CCN(Cc1ccccc1)c1nc(-c2ccc(Cl)c(Cl)c2)c(C2CC2)s1 [I-56]	1000 to 10000 nM
CC(C)c1sc(NCC(CCc2ccccc2)C(=O)O)nc1-c1ccc(Cl)cc1 (stereo not drawn) [I-43]	1000 to 10000 nM
CCOC(=O)NC1CN(c2nc(-c3ccc(Cl)c(Cl)c3)c(CC(C)C)s2)C1=O (stereo not drawn) [I-139, ethyl 1-(4-(3,4-dichlorophenyl)-5-isobutylthiazol-2-yl)-2-oxoazetidin-3-ylcarbamate]	1000 to 10000 nM
O=C(O)c1sc(C2CCCC2)cc1Nc1nc(CCc2ccccc2)c(-c2ccc(Cl)c(Cl)c2)s1 [I-309]	≤ 1000 nM
CC(C)Cc1sc(N(CCC(=O)O)CCC2CC2)nc1-c1ccc(Cl)c(Cl)c1 [I-106]	1000 to 10000 nM
CC(C)c1sc(Nc2ncc(C(F)(F)F)cc2C(=O)O)nc1-c1ccc(Cl)cc1Cl [I-323, 2-(4-(2,4-dichlorophenyl)-5-isopropylthiazol-2-ylamino)-5-(trifluoromethyl)nicotinic acid]	≤ 1000 nM
O=C(O)c1sc(NCC(Cc2ccccc2)C(=O)O)nc1-c1ccc(Cl)c(Cl)c1 (stereo not drawn) [I-183, 2-(2-carboxy-3-phenylpropylamino)-4-(3,4-dichlorophenyl)thiazole-5-carboxylic acid]	> 10000 nM
CC(C)Cc1sc(N(CCC(=O)O)Cc2ccccc2)nc1-c1cccc(Cl)c1 [I-79]	1000 to 10000 nM
CC(C)Cc1sc(Nc2ncc(-c3cccs3)cc2C(=O)O)nc1-c1ccc(OCC(N)=O)c(Cl)c1 [I-329, 2-(4-(4-(2-amino-2-oxoethoxy)-3-chlorophenyl)-5-isobutylthiazol-2-ylamino)-5-(thiophen-2-yl)nicotinic acid]	≤ 1000 nM
CC(C)Cc1sc(N(CCC(=O)N(C)CCN)Cc2ccccc2)nc1-c1ccc(Cl)c(Cl)c1 [I-132]	1000 to 10000 nM
CC(C)Cc1sc(N(CCC(=O)O)Cc2ccccc2)nc1-c1ccc(Oc2ccccc2)c(Cl)c1 [I-103]	≤ 1000 nM
CC(C)c1sc(N(CCC(=O)O)Cc2ccccc2)nc1-c1ccc(Cl)c(Cl)c1 [I-74]	≤ 1000 nM
O=C(O)C(CNc1nc(-c2ccc(Cl)c(Cl)c2)c(C2CCC2)s1)Cc1ccccc1 (stereo not drawn) [I-178]	1000 to 10000 nM
CC(C)Cc1sc(N(CCC(=O)O)Cc2ccccc2)nc1-c1ccc(O)cc1 [I-117]	1000 to 10000 nM
COc1ccccc1CC(CNc1nc(-c2ccc(Cl)c(Cl)c2)c(C2CC2)s1)C(=O)O (stereo not drawn) [I-12]	1000 to 10000 nM
CC(C)Cc1sc(N(CCC(=O)O)Cc2ccccc2)nc1-c1ccc(-c2ccsc2)cc1 [I-126, 3-(benzyl(5-isobutyl-4-(4-(thiophen-3-yl)phenyl)thiazol-2-yl)amino)propanoic acid]	≤ 1000 nM

The remaining lines, values ahead:

IC50	Compound
> 10000 nM	CC(C)Cc1sc(N(CCC(=N)N)Cc2ccccc2)nc1-c1ccc(Cl)c(Cl)c1 [I-230, 3-(benzyl(4-(3,4-dichlorophenyl)-5-isobutylthiazol-2-yl)amino)propanimidamide]
1000 to 10000 nM	CC(C)Cc1sc(NCC(Cc2cccc(O)c2)C(=O)O)nc1-c1ccc(Cl)c(Cl)c1 (stereo not drawn) [I-21]
≤ 1000 nM	CC(C)c1sc(Nc2ncc(-c3cccs3)cc2C(=O)O)nc1-c1ccc(Cl)c(Cl)c1 [I-260]
≤ 1000 nM	CC(C)c1sc(Nc2ncc(-c3cccc(F)c3)cc2C(=O)O)nc1-c1ccc(Cl)c(Cl)c1 [I-266]
1000 to 10000 nM	CC(C)Cc1sc(-c2ccc(C(F)(F)F)c(C(=O)O)c2)nc1-c1ccc(Cl)c(Cl)c1 [I-227]
> 10000 nM	CC(C)Cc1sc(NCc2cccnc2O)nc1-c1ccc(Cl)c(Cl)c1 [I-202]
1000 to 10000 nM	Cc1ncccc1CC(CNc1nc(-c2ccc(Cl)c(Cl)c2)c(CC(C)C)s1)C(=O)O (stereo not drawn) [I-156]
1000 to 10000 nM	CC(C)Cc1sc(NCC(Cc2ccc(S(C)(=O)=O)cc2)C(=O)O)nc1-c1ccc(Cl)c(Cl)c1 (stereo not drawn) [I-175]
≤ 1000 nM	CC(C)Cc1sc(Nc2cc(-c3ccc(F)cc3)sc2C(=O)O)nc1-c1ccc(Cl)c(Cl)c1 [I-271]
≤ 1000 nM	CC(C)Cc1sc(N2CCN(C(=O)Nc3ccccc3)C(C(=O)O)C2)nc1-c1ccc(Cl)c(Cl)c1 (stereo not drawn) [I-252]
> 10000 nM	CC(C)Cc1sc(N(CCC(=O)O)CCN(C)C)nc1-c1ccc(Cl)c(Cl)c1 [I-72]
≤ 1000 nM	CC(C)c1sc(Nc2ncccc2C(=O)O)nc1-c1ccc(Cl)c(Cl)c1 [I-258]
≤ 1000 nM	CC(C)Cc1sc(NCC(NC(=O)OCc2ccccc2)C(=O)O)nc1-c1ccc(Cl)c(Cl)c1 (stereo not drawn) [I-138, 2-(benzyloxycarbonylamino)-3-(4-(3,4-dichlorophenyl)-5-isobutylthiazol-2-ylamino) propanoic acid]
1000 to 10000 nM	CC(C)Cc1sc(Nc2cccc(C(=O)O)n2)nc1-c1ccc(Cl)c(Cl)c1 [I-219]
≤ 1000 nM	CC(C)Cc1sc(N(CCc2ccccc2)CC(=O)O)nc1-c1ccc(Cl)c(Cl)c1 [I-60]
> 10000 nM	CC(C)Cc1sc(Nc2ccccc2C#N)nc1-c1ccc(Cl)c(Cl)c1 [I-286]
> 10000 nM	COC(=O)c1ccc(Nc2nc(-c3ccc(Cl)c(Cl)c3)c(CC(C)C)s2)n1C [I-287]
1000 to 10000 nM	CC(C)Cc1sc(-c2cc(C(=O)O)c(F)cn2)nc1-c1ccc(Cl)c(Cl)c1 [I-240]

IC50	Compound
≤ 1000 nM	CC(C)Cc1sc(N(CCC(=O)O)Cc2ccccc2Cl)nc1-c1ccc(Cl)c(Cl)c1 [I-108]
1000 to 10000 nM	CC(C)Cc1sc(NCC(C(=O)O)N(C)Cc2ccccc2)nc1-c1ccc(Cl)c(Cl)c1 (stereo not drawn) [I-114, 2-(benzyl(methyl)amino)-3-(4-(3,4-dichlorophenyl)-5-isobutylthiazol-2-ylamino)propanoic acid]
≤ 1000 nM	CC(C)Cc1sc(Nc2nccc(Cl)c2C(=O)O)nc1-c1ccc(Cl)c(Cl)c1 [I-242]
> 10000 nM	CC(C)Cc1sc(N(CCC(=O)O)Cc2cccc(C(=O)NCCN)c2)nc1-c1ccc(Cl)c(Cl)c1 [I-205, 3-((3-(2-aminoethylcarbamoyl)benzyl)(4-(3,4-dichlorophenyl)-5-isobutylthiazol-2-yl)amino)propanoic acid]
1000 to 10000 nM	CC(C)Cc1sc(Nc2cncc(C(=O)O)c2)nc1-c1ccc(Cl)c(Cl)c1 [I-221, 5-(4-(3,4-dichlorophenyl)-5-isobutylthiazol-2-ylamino)nicotinic acid]
≤ 1000 nM	CC(C)c1sc(Nc2cc(-c3ccccc3)sc2C(=O)O)nc1-c1ccc(Cl)c(Cl)c1 [I-278]
> 10000 nM	CC(C)Cc1sc(N(CCC(N)=O)CCC(=O)O)nc1-c1ccc(Cl)c(Cl)c1 [I-61]
1000 to 10000 nM	CC(C)Cc1sc(N(CCC(=O)O)C(=O)c2ccccc2)nc1-c1ccc(Cl)c(Cl)c1 [I-144]
> 10000 nM	CC(C)Cc1sc(NCc2cccc(O)n2)nc1-c1ccc(Cl)c(Cl)c1 [I-201, 6-((4-(3,4-dichlorophenyl)-5-isobutylthiazol-2-ylamino)methyl)pyridin-2-ol]
≤ 1000 nM	CC(C)Cc1sc(Nc2cc(-c3cccnc3)sc2C(=O)O)nc1-c1ccc(Cl)c(Cl)c1 [I-273]
≤ 1000 nM	CC(C)c1sc(Nc2ncc(-c3ccccn3)cc2C(=O)O)nc1-c1ccc(Cl)c(Cl)c1 [I-282, 6′-(4-(3,4-dichlorophenyl)-5-isopropylthiazol-2-ylamino)-2,3′-bipyridine-5′-carboxylic acid]
1000 to 10000 nM	CC(C)Cc1sc(NCC(Cc2cccc3cc[nH]c23)C(=O)O)nc1-c1ccc(Cl)c(Cl)c1 (stereo not drawn) [I-24]
1000 to 10000 nM	CC(C)Cc1sc(N(CCC(=O)O)Cc2ccc(Cl)cc2)nc1-c1ccc(Cl)c(Cl)c1 [I-109]
1000 to 10000 nM	CC(C)Cc1sc(Nc2cccnc2C(=O)O)nc1-c1ccc(Cl)c(Cl)c1 [I-234, 3-(4-(3,4-dichlorophenyl)-5-isobutylthiazol-2-ylamino)picolinic acid]
≤ 1000 nM	CC(C)Cc1sc(N(CCC(=O)O)CCc2cccc(Cl)c2)nc1-c1ccc(Cl)c(Cl)c1 [I-94]
> 10000 nM	CC(C)Cc1sc(NCC(CCCCN)C(=O)O)nc1-c1ccc(Cl)c(Cl)c1 (stereo not drawn) [I-125, 6-amino-2-((4-(3,4-dichlorophenyl)-5-isobutylthiazol-2-ylamino)methyl)hexanoic acid]
≤ 1000 nM	CC(C)Cc1sc(Nc2ncc(-c3ccc4ccccc4c3)cc2C(=O)O)nc1-c1ccc(Cl)c(Cl)c1 [I-322, 2-(4-(3,4-dichlorophenyl)-5-isobutylthiazol-2-ylamino)-5-(naphthalen-2-yl)nicotinic acid]
